Like-named read-outs stand apart in the source and are kept apart here.
Tests used:
[1] = tested on: phosphorylation of Akt at Serine 473 in U87 MG cells; assay: cells; conditions: Homo sapiens, U-87 MG, 2 h
PI3Kα = PI3Kα (Homo sapiens (Human), UniProt P42336); conditions: read-out: PI3Kα AlphaScreen ® Ki
[2] = read-out: U87Cell IC50, pAkt (Ser 473), U87 MG cells, two hours with compound

PI3Kα, sequence (P42336 whole entry): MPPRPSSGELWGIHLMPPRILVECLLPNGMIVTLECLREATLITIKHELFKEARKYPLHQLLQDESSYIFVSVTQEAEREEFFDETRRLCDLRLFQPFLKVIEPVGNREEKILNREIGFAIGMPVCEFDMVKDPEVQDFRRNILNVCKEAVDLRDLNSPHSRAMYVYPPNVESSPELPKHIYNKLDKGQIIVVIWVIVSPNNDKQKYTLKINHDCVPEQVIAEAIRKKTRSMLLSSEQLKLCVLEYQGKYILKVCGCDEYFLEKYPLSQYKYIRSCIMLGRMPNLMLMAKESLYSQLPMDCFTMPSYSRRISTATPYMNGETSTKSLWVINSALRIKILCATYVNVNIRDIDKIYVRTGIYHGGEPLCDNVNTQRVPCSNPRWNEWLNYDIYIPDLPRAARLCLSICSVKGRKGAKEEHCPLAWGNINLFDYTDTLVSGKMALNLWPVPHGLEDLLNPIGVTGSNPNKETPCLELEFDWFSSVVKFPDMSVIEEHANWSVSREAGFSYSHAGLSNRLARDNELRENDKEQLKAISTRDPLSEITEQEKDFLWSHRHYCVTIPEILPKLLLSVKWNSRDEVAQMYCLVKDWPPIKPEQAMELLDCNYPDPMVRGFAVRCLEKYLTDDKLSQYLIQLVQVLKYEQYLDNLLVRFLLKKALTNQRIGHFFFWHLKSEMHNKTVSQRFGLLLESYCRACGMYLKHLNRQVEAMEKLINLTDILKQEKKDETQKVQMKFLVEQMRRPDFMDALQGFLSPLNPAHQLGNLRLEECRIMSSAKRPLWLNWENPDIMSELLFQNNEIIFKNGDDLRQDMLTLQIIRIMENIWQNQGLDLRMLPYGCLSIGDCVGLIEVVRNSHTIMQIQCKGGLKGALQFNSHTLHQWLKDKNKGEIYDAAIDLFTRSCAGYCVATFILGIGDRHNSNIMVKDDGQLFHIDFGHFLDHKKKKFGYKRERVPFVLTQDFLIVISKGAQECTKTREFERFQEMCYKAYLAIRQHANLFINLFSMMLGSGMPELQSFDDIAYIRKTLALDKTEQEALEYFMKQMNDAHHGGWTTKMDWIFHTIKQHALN
PI3Kα, sequence (P27986 whole entry partner): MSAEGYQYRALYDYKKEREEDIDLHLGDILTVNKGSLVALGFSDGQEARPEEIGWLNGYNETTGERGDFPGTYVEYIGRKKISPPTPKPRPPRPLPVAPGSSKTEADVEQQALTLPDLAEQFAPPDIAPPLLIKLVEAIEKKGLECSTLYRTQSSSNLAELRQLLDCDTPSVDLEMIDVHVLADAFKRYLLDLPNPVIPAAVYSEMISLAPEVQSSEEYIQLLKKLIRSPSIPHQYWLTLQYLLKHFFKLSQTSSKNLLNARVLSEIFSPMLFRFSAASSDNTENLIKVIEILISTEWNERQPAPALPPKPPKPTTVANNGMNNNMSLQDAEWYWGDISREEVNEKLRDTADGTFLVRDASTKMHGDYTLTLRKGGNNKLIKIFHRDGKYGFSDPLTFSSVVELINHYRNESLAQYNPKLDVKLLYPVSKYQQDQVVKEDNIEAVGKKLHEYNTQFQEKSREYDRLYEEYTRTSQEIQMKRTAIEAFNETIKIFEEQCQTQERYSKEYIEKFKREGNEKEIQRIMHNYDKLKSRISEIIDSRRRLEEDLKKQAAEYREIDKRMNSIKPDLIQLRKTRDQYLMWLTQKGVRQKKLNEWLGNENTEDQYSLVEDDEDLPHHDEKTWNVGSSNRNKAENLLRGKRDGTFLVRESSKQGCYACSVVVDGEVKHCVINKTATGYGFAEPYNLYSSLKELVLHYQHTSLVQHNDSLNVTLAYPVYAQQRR

## COc1ncc(Nc2ncc([C@@H](C)N3CCN(S(C)(=O)=O)C[C@@H]3C)cc2-c2nc(C)nc3[nH]cnc23)cc1F [Example 295, N-(5-Fluoro-6-Methoxypyridin-3-yl)-5-((R)-1-((S)-2-Methyl-4-(Methylsulfonyl)Piperazin-1-yl)Ethyl)-3-(2-Methyl-9H-Purin-6-yl)Pyridin-2-Amine]
[1]; [2]
  IC50: 6 nM
PI3Kα
  Ki: 3 nM

## COc1ncc(Nc2ncc([C@H](C)N3CCN(S(C)(=O)=O)C[C@@H]3C)cc2-c2nc(C)nc3[nH]cnc23)cc1F [Example 296, N-(5-Fluoro-6-Methoxypyridin-3-yl)-5-((S)-1-((S)-2-Methyl-4-(Methylsulfonyl)Piperazin-1-yl)Ethyl)-3-(2-Methyl-9H-Purin-6-yl)Pyridin-2-Amine]
[1]; [2]
  IC50: 51 nM
PI3Kα
  Ki: 18 nM

## COc1ncc(Nc2ncc([C@@H](C)N3CCN(S(C)(=O)=O)CC3)cc2-c2nc(C)nc3[nH]cnc23)cc1F [Example 297, (R)—N-(5-Fluoro-6-Methoxypyridin-3-yl)-3-(2-Methyl-9H-Purin-6-yl)-5-(1-(4-(Methylsulfonyl)Piperazin-1-yl)Ethyl)Pyridin-2-Amine]
[1]; [2]
  IC50: 9 nM
PI3Kα
  Ki: 1 nM

## COc1ncc(Nc2ncc(C3(O)CC3)cc2-c2nc(C)nc(N)n2)cc1F [Example 298, 1-(5-(4-Amino-6-Methyl-1,3,5-Triazin-2-yl)-6-(5-Fluoro-6-Methoxypyridin-3-Ylamino)Pyridin-3-yl)Cyclopropanol]
[1]; [2]
  IC50: 23 nM
PI3Kα
  Ki: 4 nM

## COc1ncc(Nc2ncc(C(C)NC(C)C)cc2-c2nc(C)nc(N)n2)cc1F (centres unmarked) [Example 299, 4-(2-(5-Fluoro-6-Methoxypyridin-3-Ylamino)-5-(1-(Isopropylamino)Ethyl)Pyridin-3-yl)-6-Methyl-1,3,5-Triazin-2-Amine]
[1]; [2]
  IC50: 45 nM
PI3Kα
  Ki: 61 nM

## COc1ncc(Nc2ncc(C3(N)CC3)cc2-c2nc(C)nc(N)n2)cc1F [Example 300, 4-(5-(1-Aminocyclopropyl)-2-(5-Fluoro-6-Methoxypyridin-3-Ylamino)Pyridin-3-yl)-6-Methyl-1,3,5-Triazin-2-Amine]
[1]; [2]
  IC50: 17 nM
PI3Kα
  Ki: 74 nM

## CCC(N)(CC)c1cnc(Nc2cnc(OC)c(F)c2)c(-c2nc(C)nc(N)n2)c1 [Example 301, 4-(5-(3-Aminopentan-3-yl)-2-(5-Fluoro-6-Methoxypyridin-3-Ylamino)Pyridin-3-yl)-6-Methyl-1,3,5-Triazin-2-Amine]
[1]; [2]
  IC50: 70 nM
PI3Kα
  Ki: 110 nM

## COc1ncc(Nc2ncc([C@@H](C)N3CCN(S(C)(=O)=O)CC3)cc2-c2nc(C)nc(N)n2)cc1C(C)C [Example 302, (R)-4-(2-(5-Isopropyl-6-Methoxypyridin-3-Ylamino)-5-(1-(4-(Methylsulfonyl)Piperazin-1-yl)Ethyl)Pyridin-3-yl)-6-Methyl-1,3,5-Triazin-2-Amine]
[1]; [2]
  IC50: 203 nM
PI3Kα
  Ki: 24 nM

## CCS(=O)(=O)c1cnc(Nc2cnc(OC)c(F)c2)c(-c2nc(C)nc(N)n2)c1 [Example 303, 4-(5-(ethylsulfonyl)-2-(5-fluoro-6-methoxypyridin-3-ylamino)pyridin-3-yl)-6-methyl-1,3,5-triazin-2-amine]
[1]; [2]
  IC50: > 10000 nM
PI3Kα
  Ki: 807 nM

## Cc1nc(N)cc(-c2cccnc2Nc2cnc(Cl)c(NS(C)(=O)=O)c2)n1 [Example 304, N-(5-((3-(6-amino-2-methyl-4-pyrimidinyl)-2-pyridinyl)amino)-2-chloro-3-pyridinyl)methanesulfonamide]
[1]; [2]
  IC50: 146 nM
PI3Kα
  Ki: 29 nM

## COc1ncc(Nc2ncc([C@@H](C)N3CCN(S(C)(=O)=O)CC3)cc2-c2cc(N)nc(C)n2)cc1F [Example 305, 6-(2-((5-fluoro-6-methoxy-3-pyridinyl)amino)-5-((1R)-1-(4-(methylsulfonyl)-1-piperazinyl)ethyl)-3-pyridinyl)-2-methyl-4-pyrimidinamine]
[1]; [2]
  IC50: 1 nM
PI3Kα
  Ki: 2 nM

## COc1ncc(Nc2ncc([C@@H](C)N3CCN(S(C)(=O)=O)C[C@@H]3C)cc2-c2cc(N)nc(C)n2)cc1F [Example 306, 6-(2-((5-fluoro-6-methoxy-3-pyridinyl)amino)-5-((1R)-1-((2S)-2-methyl-4-(methylsulfonyl)-1-piperazinyl)ethyl)-3-pyridinyl)-2-methyl-4-pyrimidinamine]
[1]; [2]
  IC50: 3 nM
PI3Kα
  Ki: 1 nM

## Cc1nc(N)cc(-c2nccnc2Nc2cnc(Cl)c(NS(C)(=O)=O)c2)n1 [Example 307, N-(5-((3-(6-amino-2-methyl-4-pyrimidinyl)-2-pyrazinyl)amino)-2-chloro-3-pyridinyl)methanesulfonamide]
[1]; [2]
  IC50: > 10000 nM
PI3Kα
  Ki: 260 nM

## COc1ccc(Nc2ncc(C(C)N3CC(S(C)(=O)=O)C3)cc2-c2nc(C)nc(N)n2)cn1 (centres unmarked) [Example 308, 4-(2-(6-methoxypyridin-3-ylamino)-5-(1-(3-(methylsulfonyl)azetidin-1-yl)ethyl)pyridin-3-yl)-6-methyl-1,3,5-triazin-2-amine 2,2,2-trifluoroacetate]
[1]; read-out: U87Cell IC50
  IC50: 60 nM
PI3Kα
  Ki: 19 nM

## Cc1nc(N)nc(-c2cc([C@@H](C)N3CCN(S(C)(=O)=O)CC3)cnc2Nc2ccc(Cl)nc2)n1 [Example 309, (R)-4-(2-(6-chloropyridin-3-ylamino)-5-(1-(4-(methylsulfonyl)piperazin-1-yl)ethyl)pyridin-3-yl)-6-methyl-1,3,5-triazin-2-amine]
[1]; [2]
  IC50: 46 nM
PI3Kα
  Ki: 44 nM

## Cc1nc(N)nc(-c2cc([C@@H](C)N3CCN(S(C)(=O)=O)CC3)cnc2Nc2ccc3cccnc3c2)n1 [Example 310, (R)—N-(3-(4-amino-6-methyl-1,3,5-triazin-2-yl)-5-(1-(4-(methylsulfonyl)piperazin-1-yl)ethyl)pyridin-2-yl)quinolin-7-amine 2,2,2-trifluoroacetate]
[1]; read-out: U87Cell IC50
  IC50: 65 nM
PI3Kα
  Ki: 36 nM

## COc1ncc(Nc2ncc(CN3CCN(S(C)(=O)=O)CC3C(F)(F)F)cc2-c2nc(C)nc(N)n2)cc1F (centres unmarked) [Example 313, 4-(2-(5-Fluoro-6-Methoxypyridin-3-Ylamino)-5-((4-(Methylsulfonyl)-2-(Trifluoromethyl)Piperazin-1-yl)Methyl)Pyridin-3-yl)-6-Methyl-1,3,5-Triazin-2-Amine]
[1]; [2]
  IC50: > 10000 nM
PI3Kα
  Ki: 7 nM

## COc1ncc(Nc2ncc(CN3CCOC[C@@H]3C)cc2-c2nc(C)nc(N)n2)cc1F [Example 315, (S)-4-(2-(5-Fluoro-6-Methoxypyridin-3-Ylamino)-5-((3-Methylmorpholino)Methyl)Pyridin-3-yl)-6-Methyl-1,3,5-Triazin-2-Amine]
[1]; [2]
  IC50: 31 nM
PI3Kα
  Ki: 27 nM

## COc1cc(Nc2ncc(CN3CCN(S(C)(=O)=O)C[C@@H]3C)cc2-c2nc(C)nc(N)n2)cnc1Cl [Example 317, (S)-4-(2-(6-Chloro-5-Methoxypyridin-3-Ylamino)-5-((2-Methyl-4-(Methylsulfonyl)Piperazin-1-yl)Methyl)Pyridin-3-yl)-6-Methyl-1,3,5-Triazin-2-Amine]
[1]; [2]
  IC50: 12 nM
PI3Kα
  Ki: 18 nM

## Cc1nc(N)nc(-c2cc(CN3CCN(S(C)(=O)=O)C[C@@H]3C)cnc2Nc2ccc(Cl)nc2)n1 [Example 318, (S)-4-(2-(6-Chloropyridin-3-Ylamino)-5-((2-Methyl-4-(Methylsulfonyl)Piperazin-1-yl)Methyl)Pyridin-3-yl)-6-Methyl-1,3,5-Triazin-2-Amine]
[1]; [2]
  IC50: 44 nM
PI3Kα
  Ki: 32 nM

## COc1ncc(Nc2ncc(CN3CCN(S(C)(=O)=O)C[C@@H]3C)cc2-c2nc(C)nc(N)n2)cn1 [Example 319, (S)-4-(2-(2-Methoxypyrimidin-5-Ylamino)-5-((2-Methyl-4-(Methylsulfonyl)Piperazin-1-yl)Methyl)Pyridin-3-yl)-6-Methyl-1,3,5-Triazin-2-Amine]
[1]; [2]
  IC50: 52 nM
PI3Kα
  Ki: 21 nM

## COc1ccc(Nc2ncc(C(C)(O)C(F)(F)F)cc2-c2nc(C)nc(N)n2)cn1 (centres unmarked) [Example 320, 2-(5-(4-amino-6-methyl-1,3,5-triazin-2-yl)-6-(6-methoxypyridin-3-ylamino)pyridin-3-yl)-1,1,1-trifluoropropan-2-ol]
[1]; [2]
  IC50: 61 nM
PI3Kα
  Ki: 124 nM

## COc1ccc(Nc2ncc(C(N3CCN(S(C)(=O)=O)CC3)C(F)(F)F)cc2-c2nc(C)nc(N)n2)cn1 (centres unmarked) [Example 321, 4-(2-(6-Methoxypyridin-3-Ylamino)-5-(2,2,2-Trifluoro-1-(4-(Methylsulfonyl)Piperazin-1-yl)Ethyl)Pyridin-3-yl)-6-Methyl-1,3,5-Triazin-2-Amine]
[1]; [2]
  IC50: 80 nM
PI3Kα
  Ki: 34 nM

## COc1ccc(Nc2ncc([C@@H](O)C(F)(F)F)cc2-c2nc(C)nc(N)n2)cn1 [Example 322, (R)-1-(5-(4-amino-6-methyl-1,3,5-triazin-2-yl)-6-(6-methoxypyridin-3-ylamino)pyridin-3-yl)-2,2,2-trifluoroethanol]
[1]; [2]
  IC50: 51 nM
PI3Kα
  Ki: 86 nM

## COc1ccc(Nc2ncc([C@H](O)C(F)(F)F)cc2-c2nc(C)nc(N)n2)cn1 [Example 323, (S)-1-(5-(4-amino-6-methyl-1,3,5-triazin-2-yl)-6-(6-methoxypyridin-3-ylamino)pyridin-3-yl)-2,2,2-trifluoroethanol]
[1]; [2]
  IC50: 46 nM
PI3Kα
  Ki: 34 nM

## COc1ccc(Nc2ncc(C(N)C(F)(F)F)cc2-c2nc(C)nc(N)n2)cn1 (centres unmarked) [Example 324, 4-(5-(1-Amino-2,2,2-Trifluoroethyl)-2-(6-Methoxypyridin-3-Ylamino)Pyridin-3-yl)-6-Methyl-1,3,5-Triazin-2-Amine]
[1]; [2]
  IC50: 106 nM
PI3Kα
  Ki: 59 nM

## Cc1nc(N)nc(-c2cc(CN3CCN(S(C)(=O)=O)CC3)cnc2Nc2ccc3ccncc3c2)n1 [Example 326, N-(3-(4-Amino-6-Methyl-1,3,5-Triazin-2-yl)-5-((4-(Methylsulfonyl)Piperazin-1-yl)Methyl)Pyridin-2-yl)Isoquinolin-7-Amine]
[1]; [2]
  IC50: 57 nM
PI3Kα
  Ki: 68 nM

## COc1ncc(Nc2ncc(C(C)N)cc2-c2nc(C)nc(N)n2)cc1F (centres unmarked) [Example 327, 4-(5-(1-Aminoethyl)-2-(5-Fluoro-6-Methoxypyridin-3-Ylamino)Pyridin-3-yl)-6-Methyl-1,3,5-Triazin-2-Amine]
[1]; [2]
  IC50: 146 nM
PI3Kα
  Ki: 69 nM
